Experimental data reported in US20180360072A1 (priority 2017, published 2018).
Where two headings read alike, the source gives them in different places.

Columns and labels:
Infγ, Tnfα and Mmp9 mRNA = system: Infγ, Tnfα and Mmp9 mRNA; parameters: species or system broiler chicks; conditions: in vivo
[1] = Separate growth experiment, 26 days: body weight gain and ileal fat and nitrogen levels; assay type: in vivo, broiler chicks; conditions: 1.5 g/kg feed DCA diet for 26 days vs basal diet
Protocol: In a separate experiment, birds were fed diet supplementing with DCA at 1.5 g/kg feed. After 26 days the birds were weighed and sacrificed and ileal content were collected. The dry matter (DM), crude fat, and nitrogen levels in the ileal content was analyzed at the Central Analytical Lab at Department of Poultry Science at University of Arkansas at Fayetteville, Ark.

C. perfringens [2] = experiment: microbe, parasite or virus in culture; assay type: cell-based, Clostridium perfringens
[3] = Broiler growth performance (body weight gain, feed conversion ratio) on DCA diet; assay type: in vivo, broiler chicks
[4] = system: E. maxima and C. perfringens; assay type: in vivo, broiler chicks
[5] = system: E. maxima and C. perfringens; assay type: in vivo, broiler chicks; remark: listed apart in the source
C. jejuni strain 81-176 = experiment: C. jejuni 81-176 cecal colonization in broiler chicks fed DCA diet; assay type: in vivo; conditions: 1.5 g/kg DCA diet, 10^9 CFU/chick C. jejuni 81-176 at 14 days of age
Ptgs2 and Atp6vg1 mRNA = experiment: Host response gene mRNA accumulation in ileal tissue (real time PCR); assay type: in vivo; conditions: DCA diet; chicken ileal tissue; normalized to Gapdh
Protocol: Total RNA from chicken intestinal tissue was extracted using TRIzol (Invitrogen, Carlsbad, Calif.). Briefly, after bead beater disruption in TRIzol and chloroform and centrifugation, supernatant was precipitated with isopropanol. The pelleted RNA was washed once with 75% ethanol. The final RNA was dissolved in DNase/RNase free water and stored in −80° C. freezer. Complementary DNA was prepared using M-MLV (NEB).
Messenger RNA levels of proinflammatory genes were determined using SYBR Green PCR Master Mix (Bio-Rad, Hercules, Calif.) on an Bio-Rad 384-well Real-Time PCR System and normalized to Gapdh. The polymerase chain reactions were performed on 384-well real time PCR machine (Bio-Rad, Hercules, Calif.) according to the manufacturer's recommendation. […]

C. perfringens [6] = assay type: in vivo, broiler chicks; conditions: DCA birds vs NE control birds; 16S rDNA real time PCR
[7] = system: C. perfringens 16S, Cpb and Virx mRNA; parameters: species or system broiler chicks; conditions: in vivo
C. jejuni = C. jejuni in vitro growth inhibition in BHI broth (OD600); assay type: cell-based, Campylobacter jejuni; conditions: 1 mM, 48 hours in BHI broth; for C. jejuni growth, OD600: microaerobic, without bile acid 0.153
Protocol: To evaluate bile acids on C. jejuni growth, the bacterium was inoculated in BHI broth. The medium was also added final concentration of 0, 0.2, 0.5, and 1 mM DCA, and 1 mM TCA and CA. After 48-hour culture under microaerobic condition, the bacterium growth was measured at OD600.

## C[C@H](CCC(=O)O)[C@H]1CC[C@H]2[C@@H]3CC[C@@H]4C[C@H](O)CC[C@]4(C)[C@H]3C[C@H](O)[C@]12C [DCA, deoxycholic acid]
Infγ, Tnfα and Mmp9 mRNA
  attenuation of NE-induced Infγ mRNA accumulation: 51%
  attenuation of NE-induced Mmp9 mRNA accumulation: 66%
  attenuation of NE-induced Tnfα mRNA accumulation: 82%
[1]
  growth performance on body weight gain: promoted bird growth performance on body weight gain
C. perfringens [2]; 0.4 mM, TSB, overnight, anaerobic, OD600
  inhibition of C. perfringens growth: 87%
[3]
  accumulative feed conversion ratio improvement compared to control diet: 16.6%
[3]; at 28 days of age
  body weight gain increase compared to control diet: 11.9%
[3]; at 28 days of age, control diet 2.86
  body weight gain: 3.20 lb
[3]; control diet 1.81, lower value means better feed efficiency
  accumulative feed conversion ratio: 1.51
[4]; 1.5 g/kg diet, d 18-23, compared to Em and NE control birds
  productivity / body weight gain loss at coccidiosis phase: prevented productivity loss
[4]; 1.5 g/kg diet, d 23-26, compared to NE control birds
  productivity / body weight gain loss at NE phase: prevented productivity loss
[4]; 1.5 g/kg diet, during 1-14 and 14-18 days of age, compared to birds fed other diets
  growth performance on body weight gain and feed efficiency before infection: promoted bird growth performance on body weight gain (FIG. 9A) and feed efficiency
[5]; 1.5 g/kg diet, upper ileum, H&E, vs NE control birds
  NE-induced intestinal inflammation and histopathology score: significantly attenuated
C. jejuni strain 81-176; 2 days PI
  C. jejuni colonization level in ceca: 0 CFU/g
C. jejuni strain 81-176; 7 days PI
  C. jejuni colonization level in ceca: 9.0×10^2 CFU/g
C. jejuni strain 81-176; 14 days PI
  C. jejuni colonization level in ceca: 0 CFU/g
Ptgs2 and Atp6vg1 mRNA
  Atp6vg1 mRNA accumulation change compared to control diet: +40%
  Ptgs2 mRNA accumulation change compared to control diet: +92%
C. perfringens [6]
  ileal luminal C. perfringens load: not significantly different from NE control birds
[7]
  block of C. perfringens 16S mRNA accumulation: 97%
  block of C. perfringens Cpb mRNA accumulation: 61%
  block of C. perfringens Virx mRNA accumulation: 61%
C. jejuni
  effect on C. jejuni growth: slightly enhanced but not inhibit C. jejuni growth
  C. jejuni growth, OD600: 0.213

## C[C@H](CCC(=O)O)[C@H]1CC[C@H]2[C@@H]3[C@H](O)C[C@@H]4C[C@H](O)CC[C@]4(C)[C@H]3C[C@H](O)[C@]12C [CA, cholic acid]
C. perfringens [2]; Clostridium perfringens, 1 mM, read-out: inhibition of C. perfringens growth
  inhibition at 1000 µM: 30%
[4]; in vivo
  productivity / body weight gain loss at NE phase: attenuated body weight gain loss
  productivity / body weight gain loss at coccidiosis phase: failed
[5]; in vivo
  NE-induced intestinal inflammation and histopathology score: reduces bird NE intestinal inflammation
C. jejuni
  effect on C. jejuni growth: failed to inhibit C. jejuni growth
  C. jejuni growth, OD600: 0.19

## C[C@H](CCC(=O)NCCS(=O)(=O)O)[C@H]1CC[C@H]2[C@@H]3[C@H](O)C[C@@H]4C[C@H](O)CC[C@]4(C)[C@H]3C[C@H](O)[C@]12C [TCA, taurocholic acid, reference compound]
C. perfringens [2]
  inhibition of C. perfringens growth: failed to prevent its growth
C. jejuni
  effect on C. jejuni growth: failed to inhibit C. jejuni growth
  C. jejuni growth, OD600: 0.197
